{
  "source": "patent US8445653B2",
  "about": "“Freeze-dried preparation of stabilized anthracycline compound” (Dainippon Sumitomo Pharma, priority 2002, dated 2013)",
  "key": {"[1]": {"details": "injection sold in Japan dissolved in distilled water for injection or physiological saline solution; cited from earlier work"}, "[2]": {"assay": "pH dependence of generation of deaminated compound (3) from amrubicin hydrochloride", "format": "physicochemical", "method": "(§1) On the contrary, since amrubicin hydrochloride tends to generate a deaminated compound (3) at a pH value of 3.5 or above, it is unstable at a high pH value as shown in the above anthracycline anticancer agents, and when the lyophilized preparation of amrubicin hydrochloride for clinical administration is dissolved in a physiological saline solution or a 5% glucose injection, the pH value thereof is 2.4 to 3.0."}, "[3]": {"assay": "Degradation in solution state at controlled solution temperature (Experiment 4)", "format": "physicochemical", "method": "To amrubicin hydrochloride (20 mg potency) in a glass beaker were added L-cysteine hydrochloride monohydrate (3.2 mg) and lactose (50 mg) as an excipient, and the resultant was dissolved in a distilled water for injection. The pH value of the solution was slightly adjusted to about pH 3 with a trace amount of sodium hydroxide and hydrochloric acid, and the resulting solution was put into a temperature-controlled bath at 5° C., 10° C., 15° C. and 25° C. The solution was sampled at the start, 6 hours later, and 24 hours later, and the degradation products therein were measured by HPLC method. The increased amounts of the desaccharified compound (2) and the deaminated compound (3) from those at the start are shown in Table 4."}, "[4]": {"assay": "pH of anthracycline injections when dissolved", "format": "physicochemical", "details": "lyophilized preparation for clinical administration dissolved in physiological saline solution or 5% glucose injection", "method": "Actually, when the anthracycline anticancer agents being sold in Japan (all of them are injections) are dissolved in a distilled water for injection or a physiological saline solution, the pH values thereof are as follows (Drugs (ethical drugs) in Japan, 24 ed., 2001, edited by Japan Pharmaceutical Information Center).\nas §1"}, "[5]": {"assay": "Turbidity of injection solution prepared from lyophilized amrubicin preparation", "format": "physicochemical"}, "[6]": {"details": "solution about pH 3, 5° C., 6 h"}, "[7]": {"details": "solution about pH 3, 5° C., 24 h"}, "[8]": {"details": "solution about pH 3, 10° C., 0 h"}, "[9]": {"details": "solution about pH 3, 10° C., 6 h"}, "[10]": {"details": "solution about pH 3, 10° C., 24 h"}, "[11]": {"details": "solution about pH 3, 15° C., 0 h"}, "[12]": {"details": "solution about pH 3, 15° C., 6 h"}, "[13]": {"details": "solution about pH 3, 15° C., 24 h"}, "[14]": {"details": "solution about pH 3, 25° C., 0 h"}, "[15]": {"details": "solution about pH 3, 25° C., 6 h"}, "[16]": {"details": "solution about pH 3, 25° C., 24 h"}},
  "note": "Where a name gives a salt, the structure may show the parent alone. Read-outs that look alike come from different tables or passages of the source.",
  "data": [
    {"smiles": "CC[C@@]1(O)C[C@H](O[C@H]2C[C@H](N(C)C)[C@H](O[C@H]3C[C@H](O)[C@H](O[C@H]4CCC(=O)[C@H](C)O4)[C@H](C)O3)[C@H](C)O2)c2c(cc3c(c2O)C(=O)c2c(O)cccc2C3=O)[C@H]1C(=O)OC", "note": "[Aclarubicin hydrochloride]", "values": [
      {"measurement": "pH value", "setting": "[1]", "value": "5.0-6.5"}
    ]},
    {"smiles": "COc1cccc2c1C(=O)c1c(O)c3c(c(O)c1C2=O)C[C@@](O)(C(C)=O)C[C@@H]3O[C@H]1C[C@H](N)[C@H](O)[C@H](C)O1", "note": "[Daunorubicin hydrochloride]", "values": [
      {"measurement": "pH value", "setting": "[1]", "value": "5.0-6.5"}
    ]},
    {"smiles": "COc1cccc2c1C(=O)c1c(O)c3c(c(O)c1C2=O)C[C@@](O)(C(=O)CO)C[C@@H]3O[C@H]1C[C@H](N)[C@H](O)[C@H](C)O1", "note": "[Doxorubicin hydrochloride]", "values": [
      {"measurement": "pH value", "setting": "[1]", "value": "5.0-6.0"}
    ]},
    {"smiles": "CC(=O)[C@]1(O)Cc2c(O)c3c(c(O)c2[C@@H](O[C@H]2C[C@H](N)[C@H](O)[C@H](C)O2)C1)C(=O)c1ccccc1C3=O", "note": "[Idarubicin hydrochloride]", "values": [
      {"measurement": "pH value", "setting": "[1]", "value": "5.0-7.0"}
    ]},
    {"smiles": "COc1cccc2c1C(=O)c1c(O)c3c(c(O)c1C2=O)C[C@@](O)(C(=O)CO)C[C@@H]3O[C@H]1C[C@H](N)[C@H](O[C@@H]2CCCCO2)[C@H](C)O1.Cl", "note": "[Pirarubucin hydrochloride]", "values": [
      {"measurement": "pH value", "setting": "[1]", "value": "5.0-6.5"}
    ]},
    {"smiles": "CC(=O)[C@]1(N)Cc2c(O)c3c(c(O)c2[C@@H](O[C@H]2C[C@H](O)[C@H](O)CO2)C1)C(=O)c1ccccc1C3=O", "note": "[amrubicin hydrochloride, (7S,9S)-9-Acetyl-9-amino-7-[(2-deoxy-β-D-erythro-pentopyranosyl)-oxy]-7,8,9,10-tetrahydro-6,11-dihydroxy-5,12-naphthacenedione]", "values": [
      {"measurement": "pH value at which deaminated compound (3) tends to be generated", "setting": "[2]", "value": "≥ 3.5"},
      {"measurement": "Increased amount of deaminated compound (3)", "setting": "[3]; solution about pH 3, 5° C., 0 h", "value": 0.00, "unit": "%"},
      {"measurement": "Increased amount of deaminated compound (3)", "setting": "[3]; [6]", "value": 0.00, "unit": "%"},
      {"measurement": "Increased amount of desaccharified compound (2)", "setting": "[3]; [6]", "value": "−0.01", "unit": "%"},
      {"measurement": "Increased amount of deaminated compound (3)", "setting": "[3]; [7]", "value": 0.04, "unit": "%"},
      {"measurement": "Increased amount of desaccharified compound (2)", "setting": "[3]; [7]", "value": 0.02, "unit": "%"},
      {"measurement": "Increased amount of deaminated compound (3)", "setting": "[3]; [8]", "value": 0.00, "unit": "%"},
      {"measurement": "Increased amount of desaccharified compound (2)", "setting": "[3]; [8]", "value": 0.00, "unit": "%"},
      {"measurement": "Increased amount of deaminated compound (3)", "setting": "[3]; [9]", "value": 0.00, "unit": "%"},
      {"measurement": "Increased amount of desaccharified compound (2)", "setting": "[3]; [9]", "value": 0.01, "unit": "%"},
      {"measurement": "Increased amount of deaminated compound (3)", "setting": "[3]; [10]", "value": 0.09, "unit": "%"},
      {"measurement": "Increased amount of desaccharified compound (2)", "setting": "[3]; [10]", "value": 0.01, "unit": "%"},
      {"measurement": "Increased amount of deaminated compound (3)", "setting": "[3]; [11]", "value": 0.00, "unit": "%"},
      {"measurement": "Increased amount of desaccharified compound (2)", "setting": "[3]; [11]", "value": 0.00, "unit": "%"},
      {"measurement": "Increased amount of deaminated compound (3)", "setting": "[3]; [12]", "value": 0.07, "unit": "%"},
      {"measurement": "Increased amount of desaccharified compound (2)", "setting": "[3]; [12]", "value": 0.00, "unit": "%"},
      {"measurement": "Increased amount of deaminated compound (3)", "setting": "[3]; [13]", "value": 0.24, "unit": "%"},
      {"measurement": "Increased amount of desaccharified compound (2)", "setting": "[3]; [13]", "value": "−0.01", "unit": "%"},
      {"measurement": "Increased amount of deaminated compound (3)", "setting": "[3]; [14]", "value": 0.00, "unit": "%"},
      {"measurement": "Increased amount of desaccharified compound (2)", "setting": "[3]; [14]", "value": 0.00, "unit": "%"},
      {"measurement": "Increased amount of deaminated compound (3)", "setting": "[3]; [15]", "value": 0.19, "unit": "%"},
      {"measurement": "Increased amount of desaccharified compound (2)", "setting": "[3]; [15]", "value": 0.05, "unit": "%"},
      {"measurement": "Increased amount of deaminated compound (3)", "setting": "[3]; [16]", "value": 0.60, "unit": "%"},
      {"measurement": "Increased amount of desaccharified compound (2)", "setting": "[3]; [16]", "value": 0.18, "unit": "%"},
      {"measurement": "Increased amount of desaccharified compound (2)", "setting": "[3]; solution about pH 3 with L-cysteine hydrochloride monohydrate and lactose, 5° C., 0 h", "value": 0.00, "unit": "%"},
      {"measurement": "pH value", "setting": "[4]", "value": "2.4 to 3.0"}
    ]},
    {"smiles": "CC(=O)C1=Cc2c(O)c3c(c(O)c2[C@@H](OC2CC(O)C(O)CO2)C1)C(=O)c1ccccc1C3=O", "note": "(some centres unmarked) [deaminated compound (3)]", "values": [
      {"measurement": "Ratio at which it may cause turbidity of the injection solution", "setting": "[5]", "value": "≥ 1", "unit": "%"}
    ]}
  ]
}
